Assay results from US20200093852A1, “Methods of Treating Ocular Disorders” (priority 2016, published 2020).
Counter-ions that a name gives are not always drawn. Like-named read-outs stand apart in the source and are kept apart here.

Target: T1, Recombinant human active heparanase (Homo sapiens, UniProt Q9Y251)
T1 construct: Recombinant human active heparanase derived from Chinese hamster ovary cells; purchased R&D Systems; host or cells: Chinese hamster ovary cells
T1 sequence (Q9Y251 158-543 limits assumed): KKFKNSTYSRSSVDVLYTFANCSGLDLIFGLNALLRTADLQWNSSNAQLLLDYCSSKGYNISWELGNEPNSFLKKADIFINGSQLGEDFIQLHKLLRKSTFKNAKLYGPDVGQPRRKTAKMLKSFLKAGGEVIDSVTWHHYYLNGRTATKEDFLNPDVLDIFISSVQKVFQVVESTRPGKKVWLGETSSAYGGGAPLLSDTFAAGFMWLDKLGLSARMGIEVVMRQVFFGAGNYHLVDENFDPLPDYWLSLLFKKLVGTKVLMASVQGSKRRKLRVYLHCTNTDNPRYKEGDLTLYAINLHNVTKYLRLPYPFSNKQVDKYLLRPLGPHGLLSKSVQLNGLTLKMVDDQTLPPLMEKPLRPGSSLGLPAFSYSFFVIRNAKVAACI
T1 sequence (Q9Y251 36-109 limits assumed): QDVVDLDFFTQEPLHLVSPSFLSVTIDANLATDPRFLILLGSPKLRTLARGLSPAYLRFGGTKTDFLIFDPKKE
Experiment: Heparanase enzyme inhibition assay (fondaparinux substrate, WST-1 detection)
Type: biochemical
Protocol: Recombinant human active heparanase derived from Chinese hamster ovary cells was from R&D Systems. […] The plates were washed three times with PBST, shaken dry, and stored for up to two weeks at 4° C. before use. […] Following initiation of the reaction by addition of fondaparinux, the plate was sealed with adhesive film and incubated at 37° C. for 20-24 h.
Test compounds were dissolved and added to the assay at varying concentrations to calculate the level of inhibition.

[1] = Table 3, read-out: IC50 heparanase inhibition by compounds of Formula 1
[2] = Table 4, read-out: IC50 heparanase inhibition by compounds of Formula 2-4

Row | IC50 [1] [µM] | IC50 [2] [µM] | SMILES | other results
1 | 11 | – | COc1cc2nc(-c3cccc4cccnc34)nc(NCCNC(=N)N)c2cc1OC [BT-2181] | –
2 | – | 31.7 | COc1cc2[nH]c(=S)n(CCNC(=O)c3cc(-c4ccccc4)on3)c(=N)c2cc1OC [BT-2133] | –
3 | 21 | – | COc1cc2nc(NCCNC(=O)c3nnc(-c4c[nH]c5ncccc45)o3)nc(N)c2cc1OC [BT-2177] | –
4 | 18.9 | – | COc1cc2nc(NCCNC(=O)c3cc(-c4ccccc4)on3)nc(N)c2cc1OC [BT-2161] | –
5 | – | 3.1 | COc1cc2[nH]c(=S)n(CCNC(=O)c3cc4ccc(-c5cccnc5)cc4[nH]3)c(=N)c2cc1OC [BT-2072] | –
6 | 22 | – | COc1cc2nc(NCCNC(=O)c3nnc(-c4cccc(F)c4)o3)nc(N)c2cc1OC [BT-2185] | –
7 | 3.3 | – | COc1cc2nc(NCCNC(=O)c3nnc(-c4cc5ccccc5[nH]4)o3)nc(N)c2cc1OC [BT-2169] | –
8 | 1 | – | COc1cc2nc(-c3cccc4cccnc34)nc(NCCc3c[nH]c4ccccc34)c2cc1OC [BT-2062] | –
9 | 18 | – | COc1cc2nc(NCCc3ccccn3)nc(NCCc3c[nH]c4ccccc34)c2cc1OC [BT-2179] | –
10 | 56 | – | COc1cc2nc(-c3ccc4ccccc4c3)nc(NCCc3c[nH]c4ccccc34)c2cc1OC [BT-2057] | –
11 | – | – | COc1cc2nc(-c3cccc4cccnc34)nc(NCCc3ccccc3)c2cc1OC [BT-2164] | IC50 (IC50 heparanase inhibition by compounds of Formula 1, Table 3): 6.1 µM
12 | – | 1 | COc1cc2[nH]c(=S)n(CCNC(=O)c3cc4cc(-c5cccnc5)ccc4[nH]3)c(=N)c2cc1OC [BT-2070] | –
13 | – | 5.9 | COc1cc2nc(SCc3ccc(C(F)(F)F)cc3)n(CCNC(=O)c3cc4ccc(-c5cccnc5)cc4[nH]3)c(=N)c2cc1OC [BT-2138] | –
14 | – | 7 | COc1cc2[nH]c(=S)n(CCNC(=O)c3c[nH]c4ccccc34)c(=N)c2cc1OC [BT-2071] | –
15 | – | 37 | COc1cc2[nH]c(=S)n(CCNC(=O)c3n[nH]c4ccccc34)c(=N)c2cc1OC [BT-2100] | –
16 | 0.7 | – | COc1cc2nc(-c3cccc4cccnc34)nc(NC3CN(C(=O)c4cc5ccccc5[nH]4)C3)c2cc1OC [BT-2120] | –
17 | – | 4.2 | COc1ccc(-c2ccc3[nH]c(C(=O)NCCn4c(=S)[nH]c5cc(OC)c(OC)cc5c4=N)cc3c2)cn1 [BT-2066] | –
18 | – | 10.7 | COc1cc2[nH]c(=S)n(CCNC(=O)c3c[nH]c4c(O)cccc34)c(=N)c2cc1OC [BT-2103] | –
19 | – | 2.89 | COc1cc2nc(SCc3ccc(C(F)(F)F)cc3)n(CCNC(=O)c3cc4cc(-c5cccnc5)ccc4[nH]3)c(=N)c2cc1OC [BT-2152] | –

Row | IC50 [1] [µM] | IC50 [2] [µM] | SMILES | other results
20 | – | 5.7 | COc1cc2nc(SCc3ccc(OC(F)(F)F)cc3)n(CCNC(=O)c3cc4cc(-c5cccnc5)ccc4[nH]3)c(=N)c2cc1OC [BT-2153] | –
21 | 33 | – | COc1cc2nc(N3CC(NC(=O)c4nnc(-c5ccccc5)o4)C3)nc(N)c2cc1OC [BT-2167] | –
22 | 53.6 | – | COc1cc2nc(-c3ccccc3CN3CCOCC3)nc(NCCc3c[nH]c4ccccc34)c2cc1OC [BT-2090] | –
23 | 41 | – | COc1cc2nc(-c3ccc4[nH]ccc4c3)nc(NCCc3c[nH]c4ccccc34)c2cc1OC [BT-2005] | –
24 | 13.4 | – | COc1cc2nc(NCCNC(=O)c3nnc(-c4ccccc4)s3)nc(N)c2cc1OC [BT-2229] | –
25 | – | 24.9 | COc1cc2nc(SC)n(CCNC(=O)c3cc4ccccc4[nH]3)c(=N)c2cc1OC [BT-2134] | –
26 | 57.5 | – | COc1cc2nc(N3CCN(C(=O)C4COc5ccccc5O4)CC3)nc(N)c2cc1OC (stereo not shown) [BT-2013, doxazosin mesylate, reference compound] | –
27 | 18 | – | COc1cc2nc(NCCNC(=N)N)nc(NCCc3c[nH]c4ccccc34)c2cc1OC [BT-2182] | –
28 | 4.1 | – | COc1cc2nc(-c3cccc4cccnc34)nc(NCCNC(=O)c3nnc(-c4ccccc4)o3)c2cc1OC [BT-2187] | –
29 | – | 28 | COc1cc2nc(SCc3cccc(C(F)(F)F)c3)n(CCNC(=O)c3cc4ccc(-c5cccnc5)cc4[nH]3)c(=N)c2cc1OC [BT-2137] | –
30 | – | 2.8 | COc1cc2[nH]c(=S)n(CCNC(=O)c3cc4cc(-c5ccc(C(=O)N6CCN(C)CC6)cc5)ccc4[nH]3)c(=N)c2cc1OC [BT-2068] | –
31 | – | 9 | COc1cc2[nH]c(=S)n(CCNC(=O)c3cc4ccccc4[nH]3)c(=N)c2cc1OC [BT-2058] | –
32 | 11 | – | COc1cc2nc(-c3cccc4cccnc34)nc(NCCc3ccccn3)c2cc1OC [BT-2178] | –
33 | 55 | – | COc1cc2nc(NCCNC(=O)c3nnc(-c4ccccc4)o3)nc(NCCc3ccccc3)c2cc1OC [BT-2170] | –
34 | 4.3 | – | COc1cc2nc(NCCNC(=O)c3nnc(-c4cc5ccccc5[nH]4)o3)nc(N)c2cc1OC [BT-2173] | –
35 | 92.7 | – | COc1cc2nc(-c3cncc4ccccc34)nc(NCCc3c[nH]c4ccccc34)c2cc1OC [BT-2007] | –
36 | 20.5 | – | COC(=O)c1ccc2c(S(=O)(=O)NC3CN(c4nc(N)c5cc(OC)c(OC)cc5n4)C3)c[nH]c2c1 [BT-2148] | –
37 | – | – | CCOC(=O)CSc1nc2cc(OC)c(OC)cc2c(=N)n1CCNC(=O)c1cc2ccccc2[nH]1 [BT-2136] | IC50 (IC50 heparanase inhibition by compounds of Formula 2-4, Table 4): 26.8 µM
38 | 14 | – | COc1cc2nc(-c3ccc4c(c3)OCCO4)nc(NCCc3c[nH]c4ccccc34)c2cc1OC [BT-2171] | –

Row | SMILES | IC50 [1] [µM] | IC50 [2] [µM] | other results
39 | COc1cc2[nH]c(=S)n(CCNC(=O)c3ccc(-c4ccccc4)[nH]3)c(=N)c2cc1OC [BT-2113] | – | 10.6 | –
40 | COc1cc2nc(-c3cccc4cccnc34)nc(NCCNS(=O)(=O)c3ccccc3)c2cc1OC [BT-2184] | 3.39 | – | –
